Reference: PubChem BioAssay (NCI)
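Exposure lasted 48 hours, with cells grown in 96-well plates and compounds tested at five concentrations. Here, GI50 denotes the concentration required for 50% inhibition of growth. The concentration for full growth arrest is given as TGI.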

Key:
Assay in all cases: NCI-60 cell line screen, 48 h
NCI-H226 lung = test system: NCI-H226 lung
BT-549 breast = test system: BT-549 breast
CAKI-1 renal = test system: CAKI-1 renal
DU-145 prostate = test system: DU-145 prostate
A549 NSCLC = test system: A549 NSCLC
NCI-H23 lung = test system: NCI-H23 lung
MDA-MB-231 breast = test system: MDA-MB-231 breast
HT29 colon = test system: HT29 colon
NCI-H460 lung = test system: NCI-H460 lung
SF-539 CNS = test system: SF-539 CNS
MDA-MB-435 = test system: MDA-MB-435
PC-3 prostate = test system: PC-3 prostate
MOLT-4 leukemia = test system: MOLT-4 leukemia
SW-620 colon = test system: SW-620 colon
HCT-15 colon = test system: HCT-15 colon
SK-OV-3 ovarian = test system: SK-OV-3 ovarian
MALME-3M melanoma = test system: MALME-3M melanoma
TK-10 renal = test system: TK-10 renal
U251 CNS = test system: U251 CNS
T-47D breast = test system: T-47D breast
SK-MEL-28 melanoma = test system: SK-MEL-28 melanoma
RPMI-8226 leukemia = test system: RPMI-8226 leukemia
SK-MEL-2 melanoma = test system: SK-MEL-2 melanoma
COLO 205 colon = test system: COLO 205 colon
SK-MEL-5 melanoma = test system: SK-MEL-5 melanoma
OVCAR-4 ovarian = test system: OVCAR-4 ovarian
HOP-62 NSCLC = test system: HOP-62 NSCLC
UACC-257 melanoma = test system: UACC-257 melanoma
NCI/ADR-RES ovarian = test system: NCI/ADR-RES ovarian
A498 renal = test system: A498 renal
MCF7 breast = test system: MCF7 breast
ACHN renal = test system: ACHN renal
IGROV1 ovarian = test system: IGROV1 ovarian
CCRF-CEM leukemia = test system: CCRF-CEM leukemia
SR leukemia = test system: SR leukemia
SNB-75 CNS = test system: SNB-75 CNS
UO-31 renal = test system: UO-31 renal
OVCAR-3 ovarian = test system: OVCAR-3 ovarian
NCI-H522 lung = test system: NCI-H522 lung
SNB-19 CNS = test system: SNB-19 CNS
HCC-2998 colon = test system: HCC-2998 colon
KM12 colon = test system: KM12 colon
SN12C renal = test system: SN12C renal
SF-295 CNS = test system: SF-295 CNS
LOX IMVI melanoma = test system: LOX IMVI melanoma
HS 578T breast = test system: HS 578T breast
OVCAR-8 ovarian = test system: OVCAR-8 ovarian
RXF 393 renal = test system: RXF 393 renal
M14 melanoma = test system: M14 melanoma
OVCAR-5 ovarian = test system: OVCAR-5 ovarian
HL-60(TB) leukemia = test system: HL-60(TB) leukemia
EKVX NSCLC = test system: EKVX NSCLC
K-562 leukemia = test system: K-562 leukemia
SF-268 CNS = test system: SF-268 CNS
UACC-62 melanoma = test system: UACC-62 melanoma
786-0 renal = test system: 786-0 renal
HCT-116 colon = test system: HCT-116 colon

COc1ccc2c3ccnc(C(F)(F)F)c3n(CCCCN)c2c1
GI50 (NCI-H226 lung): 7.42 µM
TGI (NCI-H226 lung): 30.5 µM
GI50 (BT-549 breast): 3.04 µM
TGI (BT-549 breast): 12.5 µM
GI50 (CAKI-1 renal): 4.66 µM
TGI (CAKI-1 renal): 21.4 µM
GI50 (DU-145 prostate): 9.04 µM
TGI (DU-145 prostate): 21.2 µM
GI50 (A549 NSCLC): 11.6 µM
TGI (A549 NSCLC): 26.3 µM
GI50 (NCI-H23 lung): 8.65 µM
TGI (NCI-H23 lung): 22.2 µM
GI50 (MDA-MB-231 breast): 8.12 µM
TGI (MDA-MB-231 breast): 21.7 µM
GI50 (HT29 colon): 4.01 µM
TGI (HT29 colon): 15.8 µM
GI50 (NCI-H460 lung): 5.18 µM
TGI (NCI-H460 lung): 17.7 µM
GI50 (SF-539 CNS): 6.58 µM
TGI (SF-539 CNS): 20.2 µM
GI50 (MDA-MB-435): 5.69 µM
TGI (MDA-MB-435): 20.7 µM
GI50 (PC-3 prostate): 1.96 µM
TGI (PC-3 prostate): 13.9 µM
GI50 (MOLT-4 leukemia): 3.93 µM
TGI (MOLT-4 leukemia): 12.8 µM
GI50 (SW-620 colon): 3.28 µM
TGI (SW-620 colon): 14.6 µM
GI50 (HCT-15 colon): 10.8 µM
TGI (HCT-15 colon): 25 µM
GI50 (SK-OV-3 ovarian): 10.5 µM
TGI (SK-OV-3 ovarian): 25.3 µM
GI50 (MALME-3M melanoma): 2.02 µM
TGI (MALME-3M melanoma): 5.36 µM
GI50 (TK-10 renal): 7.06 µM
TGI (TK-10 renal): 19.3 µM
GI50 (U251 CNS): 7.31 µM
TGI (U251 CNS): 21.2 µM
GI50 (T-47D breast): 6.86 µM
TGI (T-47D breast): 23.8 µM
GI50 (SK-MEL-28 melanoma): 1.92 µM
TGI (SK-MEL-28 melanoma): 3.82 µM
GI50 (RPMI-8226 leukemia): 3.05 µM
TGI (RPMI-8226 leukemia): 15.8 µM
GI50 (SK-MEL-2 melanoma): 16.8 µM
TGI (SK-MEL-2 melanoma): 35.7 µM
GI50 (COLO 205 colon): 2.74 µM
TGI (COLO 205 colon): 12.1 µM
GI50 (SK-MEL-5 melanoma): 2.83 µM
TGI (SK-MEL-5 melanoma): 9.05 µM
GI50 (OVCAR-4 ovarian): 11.7 µM
TGI (OVCAR-4 ovarian): 25.5 µM
GI50 (HOP-62 NSCLC): 8.54 µM
TGI (HOP-62 NSCLC): 21.3 µM
GI50 (UACC-257 melanoma): 3.02 µM
TGI (UACC-257 melanoma): 8.41 µM
GI50 (NCI/ADR-RES ovarian): 8.6 µM
TGI (NCI/ADR-RES ovarian): 28.1 µM
GI50 (A498 renal): 5.25 µM
TGI (A498 renal): 18 µM
GI50 (MCF7 breast): 4.61 µM
TGI (MCF7 breast): 17.4 µM
GI50 (ACHN renal): 4.58 µM
TGI (ACHN renal): 16.1 µM
GI50 (IGROV1 ovarian): 3.39 µM
TGI (IGROV1 ovarian): 14.5 µM
GI50 (CCRF-CEM leukemia): 9.02 µM
TGI (CCRF-CEM leukemia): 47.8 µM
GI50 (SR leukemia): 2.64 µM
TGI (SR leukemia): 9.52 µM
GI50 (SNB-75 CNS): 2.19 µM
TGI (SNB-75 CNS): 12.8 µM
GI50 (UO-31 renal): 1.6 µM
TGI (UO-31 renal): 8.36 µM
GI50 (OVCAR-3 ovarian): 3.82 µM
TGI (OVCAR-3 ovarian): 15.3 µM
GI50 (NCI-H522 lung): 6.22 µM
TGI (NCI-H522 lung): 21.4 µM
GI50 (SNB-19 CNS): 12.2 µM
TGI (SNB-19 CNS): 30.7 µM
GI50 (HCC-2998 colon): 5.23 µM
TGI (HCC-2998 colon): 16.7 µM
GI50 (KM12 colon): 5.1 µM
TGI (KM12 colon): 17.6 µM
GI50 (SN12C renal): 10.5 µM
TGI (SN12C renal): 28.7 µM
GI50 (SF-295 CNS): 6.71 µM
TGI (SF-295 CNS): 22.6 µM
GI50 (LOX IMVI melanoma): 4.38 µM
TGI (LOX IMVI melanoma): 17 µM
GI50 (HS 578T breast): 4.09 µM
TGI (HS 578T breast): 22.8 µM
GI50 (OVCAR-8 ovarian): 8.95 µM
TGI (OVCAR-8 ovarian): 26.4 µM
GI50 (RXF 393 renal): 2.3 µM
TGI (RXF 393 renal): 6.93 µM
GI50 (M14 melanoma): 4.93 µM
TGI (M14 melanoma): 17.3 µM
GI50 (OVCAR-5 ovarian): 8.62 µM
TGI (OVCAR-5 ovarian): 22.4 µM
GI50 (HL-60(TB) leukemia): 4.78 µM
TGI (HL-60(TB) leukemia): 20.1 µM
GI50 (EKVX NSCLC): 5.42 µM
TGI (EKVX NSCLC): 23.6 µM
GI50 (K-562 leukemia): 5.73 µM
TGI (K-562 leukemia): 22.8 µM
GI50 (SF-268 CNS): 6.62 µM
TGI (SF-268 CNS): 21.5 µM
GI50 (UACC-62 melanoma): 10.8 µM
TGI (UACC-62 melanoma): 23.2 µM
GI50 (786-0 renal): 7.09 µM
TGI (786-0 renal): 19.4 µM
GI50 (HCT-116 colon): 3.84 µM
TGI (HCT-116 colon): 13.4 µM

CCOC(=O)Cc1[nH]c(C(=O)c2ccccc2)cc1C(=O)c1ccccc1
TGI (NCI-H226 lung): 65.8 µM
TGI (BT-549 breast): 38.7 µM
TGI (DU-145 prostate): > 10 µM
TGI (A549 NSCLC): 66.8 µM
TGI (NCI-H23 lung): 33.4 µM
TGI (MDA-MB-231 breast): > 10 µM
TGI (HT29 colon): > 10 µM
TGI (NCI-H460 lung): > 100 µM
TGI (MDA-MB-435): 66 µM
TGI (PC-3 prostate): > 10 µM
TGI (MOLT-4 leukemia): 85.7 µM
TGI (SW-620 colon): > 100 µM
TGI (HCT-15 colon): > 100 µM
TGI (SK-OV-3 ovarian): > 100 µM
TGI (MALME-3M melanoma): > 100 µM
TGI (TK-10 renal): > 100 µM
TGI (U251 CNS): > 100 µM
TGI (T-47D breast): > 100 µM
TGI (SK-MEL-28 melanoma): > 10 µM
TGI (RPMI-8226 leukemia): > 10 µM
TGI (SK-MEL-2 melanoma): > 100 µM
TGI (COLO 205 colon): 48.7 µM
TGI (SK-MEL-5 melanoma): > 100 µM
TGI (OVCAR-4 ovarian): 59.8 µM
TGI (HOP-62 NSCLC): 51.7 µM
TGI (UACC-257 melanoma): > 10 µM
TGI (NCI/ADR-RES ovarian): > 100 µM
TGI (A498 renal): > 100 µM
TGI (MCF7 breast): > 10 µM
TGI (ACHN renal): > 10 µM
TGI (IGROV1 ovarian): > 10 µM
TGI (CCRF-CEM leukemia): > 10 µM
TGI (SR leukemia): > 100 µM
TGI (SNB-75 CNS): > 100 µM
TGI (UO-31 renal): > 10 µM
TGI (OVCAR-3 ovarian): > 100 µM
TGI (NCI-H522 lung): > 100 µM
TGI (SNB-19 CNS): > 100 µM
TGI (HCC-2998 colon): > 100 µM
TGI (KM12 colon): > 100 µM
TGI (SN12C renal): > 100 µM
TGI (SF-295 CNS): > 10 µM
TGI (LOX IMVI melanoma): > 100 µM
TGI (HS 578T breast): > 100 µM
TGI (OVCAR-8 ovarian): > 10 µM
TGI (RXF 393 renal): > 100 µM
TGI (M14 melanoma): > 100 µM
TGI (OVCAR-5 ovarian): > 10 µM
TGI (HL-60(TB) leukemia): > 100 µM
TGI (EKVX NSCLC): > 100 µM
TGI (K-562 leukemia): > 10 µM
TGI (SF-268 CNS): > 100 µM
TGI (UACC-62 melanoma): > 100 µM
TGI (786-0 renal): > 10 µM
TGI (HCT-116 colon): 33.4 µM
